According to patent publication US10800824B2, “AIMP1 protein fragment and skin-protecting composition containing same as active ingredient” (NEOMICS CO., LTD., priority 2016, dated 2020):
No end group written: not given here.

Legend:
Raw 264.7 cells = experiment: TNF-alpha ELISA assay (TNF-alpha secretion); format: cell-based; settings: 10 μM, 6 hours, FIG. 4
Experimental: Raw 264.7 cells (ATCC TIB-71; 3,000 cells/well) were cultured for 12 hours in DMEM medium containing 10% serum in a 96-well plate, and then cultured in serum-free medium for about 3 hours. Then, Neo-Pep polypeptide (SEQ ID NO: 1) and its fragments (SEQ ID NOS: 2 to 4) were added to the DMEM medium with the concentration of 10 μM each, and then cultured for 6 hours.
Then, the medium was collected and centrifuged at 1,000 g for 10 minutes, and secreted TNF-α was detected using a TNF-α ELISA assay (BD Biosciences, USA) according to the manufacturer's instructions.

[1] = system: normal epithelium cells (vero); experiment: Cytotoxicity assay (Cell Counting Kit-8 assay) on normal epithelium cells; format: cell-based; settings: 10 μM, 24 hours, CCK-8, FIG. 3
Experimental: To confirm the proliferation and cytotoxicity of the fibroblasts, the CCK-8 assay (Cell Counting Kit-8 assay) of Dojindo Molecular Technologies (Japan) was performed according to the manufacturer's instructions.
First, human foreskin fibroblast (3,000 cells/well; Promocell) and normal epithelium cells (vero; 3,000 cells/well) were cultured in DMEM medium containing 10% serum in 96-well plates for 12 hours, and then cultured in serum-free medium for about 3 hours. Then, Neo-Pep polypeptide (SEQ ID NO: 1) and fragments thereof (SEQ ID NOS: 2 to 4) were added to the DMEM medium with the concentration of 10 μM each, and then cultured for 24 hours.
Then, 10 μl of CCK-8 solution (Dojindo Molecular Technologies, Japan) was added to each well of the medium, and the absorbance was analyzed at 450 nm using a microplate reader according to the manufacturer's instructions.

Sequence	secreted TNF-alpha level versus control group (Raw 264.7 cells)	epithelium cell viability versus control group [1]
AVLKRLEQKGAEADQIIEYLKQQVSLLKEKAILQATLREEK [Neo-Pep]	very low and similar to that of control group	
IEYLKQQVSLLKEKA [Polypeptide S1400, IEYLKQQVSLLKEKA]	very low and similar to that of control group	slightly lower
KGAEADQIIEYLKQQ [Polypeptide S1300, KGAEADQIIEYLKQQ]	very low and similar to that of control group	
RLEQKGAEADQIIEY [Polypeptide S1200, RLEQKGAEADQIIEY]	very low and similar to that of control group	
